# Test results from patent publication US8828988B2 (Tetraphase Pharmaceuticals, Inc., priority 2009, dated 2014).
# Like-named read-outs stand apart in the source and are kept apart here.
# Key:
# [1] = tested on: Klebsiella pneumoniae KP153, tetracycline-resistant, tet(A), MDR, ESBL+; assay: MIC assay, KP153; format: cell-based; conditions: Table 9, read-out: MIC Klebsiella pneum KP153 (tet)A
# [2] = tested on: E. coli DH10B(pBAD-tetK), expressing tet(K); assay: MIC against recombinant E. coli expressing tet(K); format: cell-based; conditions: for MIC: Escherichia coli
# Description: Constructs were transformed into E. coli DH10B for expression. Recombinant strains were pre-induced under optimized conditions with L-arabinose prior to use as inocula in CLSI standardized MIC assays.
# [3] = tested on: S. aureus ATCC 13709 (Smith); assay: Mouse systemic infection model, S. aureus septicemia; conditions: survival after 48 hours
# [4] = tested on: Staphylococcus aureus SA158, tetracycline-resistant tet(K); assay: MIC assay, SA158; format: cell-based
# [5] = tested on: Escherichia coli EC107, ATCC 25922; assay: MIC assay, EC107; format: cell-based
# [6] = tested on: H. influenzae isolates (Eurofins-Medinet, recent clinical isolates); assay: MIC50 and MIC90 analysis (Example 22)
# Description: Frozen bacterial strains were thawed and subcultured onto Mueller Hinton Broth (MHB) or other appropriate media (Streptococcus requires blood and Haemophilus requires hemin and NAD). Following incubation overnight, the strains were subcultured onto Mueller Hinton Agar and again incubated overnight. […] Isolated colonies were selected to prepare a starting inoculum equivalent to a 0.5 McFarland standard. […] Antibiotics (stored frozen, thawed and used within 3 hours of thawing) and compounds were further diluted to the desired working concentrations.
# The assays were run as follows. Fifty μL of MHB was added to wells 2-12 of a 96-well plate. One hundred μL of appropriately diluted antibiotic or compound was added to well 1. Fifty μL of antibiotics or compound was removed from well 1 and added to well 2 and the contents of well 2 mixed by pipetting up and down five times. Fifty μL of the mixture in well 2 was removed and added to well 3 and mixed as above. Serial dilutions were continued in the same manner through well 12. Fifty μL was removed from well 12 so that all contained 50 μL. Fifty μL of the working inoculum was then added to all test wells. A growth control well was prepared by adding 50 μL of working inoculum and 50 μL of MHB to an empty well. The plates were then incubated at 37° C. overnight, removed from the incubator and each well was read on a plate reading mirror. The lowest concentration (MIC) of test compound that inhibited the growth of the bacteria was recorded.
# MIC, MIC50 and MIC90 values were determined according to CLSI methodology. S. pneumoniae and H. influenzae isolates were obtained from Eurofins-Medinet and are recent clinical isolates. S. aureus strains were collected from various geographical sources.
compound,measurement,setting,value
CN(C)CC(C)(C)CNc1nc(Cl)c2c(c1O)C(=O)C1=C(O)[C@]3(O)C(=O)C(C(N)=O)=C(O)[C@@H](N(C)C)[C@@H]3C[C@@H]1C2 [Compound 151],MIC,[1],8 µg/mL
same,MIC,"[2]; read-out: MIC, TetK Induced",1 µg/mL
same,MIC,"[2]; read-out: MIC, Uninduced",1 µg/mL
same,"MIC ratio, TetK induced to uninduced",[2]; ratio of TetK induced to uninduced MIC,1
same,Effect of expression of (tet)K on activity,[2]; result in words,unaffected
same,PD50 in the mouse septicemia model against S. aureus,"[3]; CD-1 mice, IP infection, intravenous treatment one hour post-challenge",0.36 mg/kg
same,PD50,"[3]; mouse septicemia, S. aureus ATCC 13709, intravenous treatment one hour post-challenge",0.36 mg/kg
same,MIC,"[4]; Table 8, read-out: MIC S. aureus tetK",0.13 µg/mL
same,MIC,"[4]; Table 9, read-out: MIC S. aureus SA158 (tet)K",0.125 µg/mL
same,MIC,"[5]; ATCC25922, Table 8, read-out: MIC E. coli ATCC 25922",0.5 µg/mL
same,MIC,"[5]; ATCC25922, Table 9, read-out: MIC E. coli ATCC 25922",0.5 µg/mL
same,MIC,"[5]; ATCC25922, Table 12, read-out: MIC E. coli ATCC 25922",0.25 µg/mL
same,MIC Range,[6]; H. influenzae (n = 12),0.25 to 2 µg/mL
same,MIC50,[6]; Haemophilus influenzae,1 µg/mL
same,MIC90,[6]; Haemophilus influenzae,1 µg/mL
